Consider five molecules from patent US6958402B2, “3-(imidazolyl)-2-alkoxypropanoic acids” (Pfizer, Inc., priority 2002, dated 2005).

For assay [1], the target named is T1, TAFIa (activated human TAFI) (Homo sapiens, UniProt Q96IY4).
T1 sequence (Q96IY4 115-423): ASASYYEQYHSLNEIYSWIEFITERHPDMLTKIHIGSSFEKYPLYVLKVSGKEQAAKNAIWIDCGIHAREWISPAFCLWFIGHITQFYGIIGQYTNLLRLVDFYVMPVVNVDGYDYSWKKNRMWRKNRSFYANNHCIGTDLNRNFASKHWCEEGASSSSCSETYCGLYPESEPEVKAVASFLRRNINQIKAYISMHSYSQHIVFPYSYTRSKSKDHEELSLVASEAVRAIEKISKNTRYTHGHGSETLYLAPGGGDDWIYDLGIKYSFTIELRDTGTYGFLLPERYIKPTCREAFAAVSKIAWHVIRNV
Put plainly: Assay for TAFIa inhibition (Ki determination, FAAL substrate hydrolysis). The format is biochemical. As to conditions: Ki calculated from IC50 with Cheng-Prusoff equation; substrate furylacryloyl-alanyl-lysine, 24° C.; read-out: Ki (TAFla). The method, then: The compounds are incubated with activated TAFI and a standard substrate for TAFIa, the rate of hydrolysis of the substrate is determined and compared to the rate of hydrolysis in the absence of the compounds, and the amount of inhibition expressed in terms of Ki.
Human TAFI (recombinant or purified) was activated by incubating 20 μl of stock solution (360 μg/ml) with 10 μl of human thrombin (10NIH units/ml), 10 μl of rabbit thrombomodulin (30 μg/ml), 6 μl calcium chloride (50 mM) in 50 μl of 20 mM HEPES (N-[2-hydroxyethyl]piperazine-N-[2-ethanesulfonic acid]) buffer containing 150 mM sodium chloride and 0.01% TWEEN 80 (polyoxyethylene-sorbitan monooleate) pH 7.6 for 20 minutes at 22° C. At the end of the incubation period, thrombin was neutralised by the addition of 10 μL of PPACK (D-Phe-Pro-Arg chloromethyi ketone) (100 nM). The resulting TAFIa. solution was stored on ice for 5 minutes and finally diluted with 175 μl of HEPES buffer.
(§1) A number of different dilutions of the test compound in water were made up. To 20 μl of each dilution was added 150 μl of HEPES buffer and 10 μl of TAFIa, which was then pre-incubated for 15 minutes at 24° C. To each dilution was then added 20 μl furylacryloyl-alanyl-lysine (FAAL) at a standard concentration. Substrate turnover was measured by reading the absorbance of the reaction mixture at 330 nm every 15 seconds for 30 minutes. The reaction was performed at 24° C. and samples were mixed for 3 seconds prior to each absorbance reading.
(§2) A graph of % inhibition against test compound concentration was then plotted; from which was calculated the IC50 value. The Ki value was then calculated using the Cheng-Prusoff equation.
For the first control, the assay was performed as above, but with 20 μl of water rather than a dilution of the test compound.

A further assay concerns the target T2, human CPN (Homo sapiens, UniProt P15169).
T2 sequence (P15169 21-458): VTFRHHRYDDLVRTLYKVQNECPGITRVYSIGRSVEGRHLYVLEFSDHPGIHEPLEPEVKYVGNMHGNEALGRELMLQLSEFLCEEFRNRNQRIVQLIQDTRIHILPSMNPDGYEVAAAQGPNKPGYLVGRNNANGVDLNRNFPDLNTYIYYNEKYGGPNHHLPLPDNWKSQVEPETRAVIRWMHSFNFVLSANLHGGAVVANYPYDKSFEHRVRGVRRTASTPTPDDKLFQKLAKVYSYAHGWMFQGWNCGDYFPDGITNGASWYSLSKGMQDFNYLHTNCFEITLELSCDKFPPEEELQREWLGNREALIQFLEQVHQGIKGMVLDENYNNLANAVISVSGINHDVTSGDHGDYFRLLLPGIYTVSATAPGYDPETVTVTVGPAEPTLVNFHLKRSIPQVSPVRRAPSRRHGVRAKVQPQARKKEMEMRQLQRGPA
T2 sequence (P22792 22-545 partner): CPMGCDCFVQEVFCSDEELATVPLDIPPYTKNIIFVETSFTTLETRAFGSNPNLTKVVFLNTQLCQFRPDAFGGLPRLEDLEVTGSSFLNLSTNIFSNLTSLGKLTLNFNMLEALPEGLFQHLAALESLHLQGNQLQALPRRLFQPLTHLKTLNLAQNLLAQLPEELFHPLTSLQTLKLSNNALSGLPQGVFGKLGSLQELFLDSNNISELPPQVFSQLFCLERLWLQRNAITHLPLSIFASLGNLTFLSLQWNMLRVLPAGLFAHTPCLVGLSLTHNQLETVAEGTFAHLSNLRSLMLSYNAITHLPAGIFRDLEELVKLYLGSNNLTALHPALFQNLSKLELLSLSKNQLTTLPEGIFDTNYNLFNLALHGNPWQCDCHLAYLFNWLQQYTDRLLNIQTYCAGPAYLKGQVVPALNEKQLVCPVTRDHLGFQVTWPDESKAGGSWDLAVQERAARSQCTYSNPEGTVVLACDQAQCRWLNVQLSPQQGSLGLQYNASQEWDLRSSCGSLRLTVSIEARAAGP
As to the kind of experiment: CPN Ki determination (TAFIa assay with human CPN substituted for TAFIa). The format is biochemical. The method, then:
as §1, §2
The selectivity of the compounds of the present invention for TAFIa over CPN was determined by calculating the Ki of the compounds of the present invention for CPN, then comparing it to the Ki for TAFIa. The Ki was calculated using the assay for the calculation of TAFIa Ki, but substituting 10 μl of human CPN for 10 μl of TAFIa.

Counter-ions that a name gives are not always drawn. Where only a bound is given, the exact number is not on record here.

In the case of `NCCOC(Cc1cn(CCc2ccccc2)cn1)C(=O)O` (stereo not shown) [Example 4], the Ki in assay [1] was 10 nM.

As to `NCCO[C@@H](Cc1cn(CCC2CCCCC2)cn1)C(=O)O` [Example 5, (2S)-(−)-2-(2-Aminoethoxy)-3-[1-(2-cyclohexylethyl)-1H-imidazol-4-yl]propanoic acid], in assay [1], the Ki was 10 nM.

As to `NCCOC(Cc1cn(-c2cccc(Oc3ccccc3)c2)cn1)C(=O)O` (stereo not shown) [Example 40, 2-(2-Aminoethoxy)-3-[1-(3-phenoxyphenyl)-1H-imidazol-4-yl]propanoic acid dihydrochloride], the Ki in assay [1] is 14 nM.

As for `C[C@H](CN)O[C@@H](Cc1cn(-c2ccc(OC3CCCCC3)cc2)cn1)C(=O)O` [Example 49, (2S)-2-{[(1R)-2-Amino-1-methylethyl]oxy}-3-{1-[4-(cyclohexyloxy)phenyl]-1H-imidazol-4-yl}propanoic acid], the Ki in assay [1] is 9 nM.

Regarding `C[C@H](CN)O[C@@H](Cc1c[nH]cn1)C(=O)O` [Example 51, (2S)-2-{[(1R)-2-Amino-1-methylethyl]oxy}-3-(1H-imidazol-4-yl)propanoic acid], the Ki was 26 nM in assay [1] and above 10000 nM on human CPN (same assay with 10 μl human CPN in place of TAFIa). In addition, the “Selectivity for TAFIa over CPN” value on human CPN (Ki for CPN compared to Ki for TAFIa) is recorded as above 380.

For orientation: Ki means a measure of affinity in units of concentration, obtained from inhibition or displacement.
